Assay results: patent US11654135B2, “Methods for treating colon cancer with compositions comprising amlexanox and immune checkpoint inhibitors” (MOONSHOT PHARMA LLC, priority 2017, dated 2023)

System: MC38 tumor cells
Experiment: Example 2: MC38 subcutaneous tumor model with amlexanox and checkpoint inhibitors, tumor volume by caliper
Assay type: in vivo, C57BL/6 mice
Conditions: for Mean tumor volume: MC38 s.c., C57BL/6, i.p.: NMDI14 5, PTC124 20, amlexanox 20 (with antibodies) or 10 (alone) mg/kg QD, antibodies 10 mg/kg BIW, 3 weeks; for Mean % Inhibition, Tumor Volume MC38: (mean(C) − mean(T))/mean(C) * 100%, negative values indicate an increase in tumor volume
Procedure: Animals and cell cultures were maintained as described in Example 1. C57BL/6 mice were inoculated subcutaneously at the right lower flank region with MC38 tumor cells (1×10^6) in 0.1 mL of PBS for tumor development. The treatments were started when the mean tumor size reaches approximately 50 mm^3. The date of tumor cell inoculation was denoted as day 0. All the compounds were administered i.p.
After tumor cell inoculation, the animals were checked daily for morbidity and mortality as well as any effects of tumor growth and treatments on normal behavior such as mobility, visual estimation of food and water consumption, body weight gain/loss, eye/hair matting and any other abnormal effect. Tumor volumes were measured twice weekly at least in two dimensions using a caliper, and the volume expressed in mm3 using the formula: V=0.5 a×b2 where a and b are the long and short diameters of the tumor, respectively. Mean tumor volume for each treatment group over the course of the study is shown in Table 9, and the percent inhibition of tumor volume is shown in Table 10.

CC(C)c1ccc2oc3nc(N)c(C(=O)O)cc3c(=O)c2c1 [amlexanox, 2-amino-7-isopropyl-5-oxo-5H-chromeno[2,3-b]pyridine-3-carboxylic acid]
Mean tumor volume (Day 7): 17.22 mm3 | Mean tumor volume (Day 11): 145.47 mm3 | Mean tumor volume (Day 14): 286.64 mm3 | Mean tumor volume (Day 18): 982.03 mm3 | Mean tumor volume (Day 21): 1830.00 mm3 | Mean tumor volume (Day 25): 2816.94 mm3 | Mean tumor volume (Day 26 (so in the source)): 3301.20 mm3 | Mean % Inhibition, Tumor Volume MC38 (Study day 7 (Mar. 17, 2017)): −45.19% | Mean % Inhibition, Tumor Volume MC38 (Study day 11 (Mar. 21, 2017)): −29.51% | Mean % Inhibition, Tumor Volume MC38 (Study day 14 (Mar. 24, 2017)): −39.15% | Mean % Inhibition, Tumor Volume MC38 (Study day 18 (Mar. 28, 2017)): −44.97% | Mean % Inhibition, Tumor Volume MC38 (Study day 21 (Mar. 31, 2017)): −63.00% | Mean % Inhibition, Tumor Volume MC38 (Study day 25 (Apr. 4, 2017)): −42.11% | Mean % Inhibition, Tumor Volume MC38 (Study day 28 (Apr. 7, 2017)): −104.74%
